Tested on: guinea pigs
Assay: learned helplessness assay for antidepressant/antianxiety activity
Assay type: in vivo
Conditions: guinea pig
Description: The utility of the compounds for example to treat depression may be shown via a learned helplessness test in guinea pigs, which is used extensively as correlative to antidepressant activity in humans. The learned helplessness test may be carried out as follows: Seventy male Hartley guinea pigs, each weighing about 350-425 gm are fed ad lib, and are housed under a 12-hour light/dark cycle. The procedure consists of two phases: The induction phase and the avoidance training phase. In the induction phase, subjects are placed into standard shuttle cages (20 L×16 W×21 centimeters H) which are fitted with a grid floor. Electrical stimulation (1.25 mA, 10 sec duration) is delivered to the floor of the cage every 90-sec during 1 hour daily sessions. Subjects have no opportunity to escape or to avoid shocks. Induction is conducted for 2 consecutive days.
In avoidance training, testing is also conducted in the shuttle cages, except that the subjects are not returned to the same chamber in which induction had occurred. Additionally, all cages are fitted with a partition with an arch in the center of the cage, through which animals can pass between the left and right halves of the cage. The procedure employed is a standard shuttle avoidance procedure in which a compound, conditioned stimulus (a 10-sec presentation of a tone and turning on of a lamp on the side of the cage that the guinea pig was occupying) serves to indicate presentation of electrical current to the floor of the cage. Shock is presented for a 5 sec period, 5 sec after initiation of the conditioned stimulus. Entry into the opposite side of the shuttle cage via the arched partition prior to shock onset results in the end of the trial (avoidance response). If shock is delivered, entry into the opposite side of the cage results in termination of the shock and CS (escape). Reversal of learned helplessness in the induction subjects correlates to antidepressant activity of the test compound.
Avoidance training, 45-min in duration, is conducted on 2 consecutive days, beginning 48 hr after the final induction session. Seventy subjects are assigned to 1 of 6 groups of 11-12 animals. The groups are as follows:
Groups 2-6 are given induction and avoidance training sessions. Injections are administered immediately following induction sessions and 1 hour prior to avoidance training sessions. A second injection is administered 7-8 hours following the first injection, for a total of 9 injections administered over 5 days. No injections are administered following the final avoidance training session.
Compounds of the present invention may be administered in a volume of 1 mL/kg bwt. Imipramine is dissolved in DI water. The compounds are dissolved in DI water, to which was added a few drops of lactic acid (pH 5.5). […]

| Compound | activity in the learned helplessness assay |
| --- | --- |
| COc1cc(N2CCN(C)CC2)c2oc(C(=O)Nc3ccc(N4CCOCC4)cc3)cc(=O)c2c1 [Example 31, 6-Methoxy-8-(4-methyl-piperazin-1-yl)-4-oxo-4H-chromene-2-carboxylic acid (4-morpholin-4-yl-phenyl)-amide] | demonstrate activity |
| CCC(=O)N1CCN(c2ccc(NC(=O)c3cc(=O)c4cc(OC)cc(N5CCN(C)CC5)c4o3)cc2)CC1 [Example 44, 6-Methoxy-8-(4-methyl-piperazin-1-yl)-4-oxo-4H-chromene-2-carboxylic acid [4-(4-propionyl-piperazin-1-yl)-phenyl]-amide] | demonstrate activity |
| CCS(=O)(=O)N1CCN(c2ccc(NC(=O)c3cc(=O)c4cc(F)cc(N5CCN(C)CC5)c4o3)cc2)CC1 [Example 71, 6-Fluoro-8-(4-methyl-piperazin-1-yl)-4-oxo-4H-chromene-2-carboxylic acid [4-(4-ethane sulfonyl-piperazin-1-yl)-phenyl]-amide] | demonstrate activity |
| CCC(=O)N1CCN(c2ccc(NC(=O)c3cc(=O)c4cc(F)cc(N5CCN(C)CC5)c4o3)cc2)CC1 [Example 72, 6-flouro-8-(4-methyl-piperazin-1-yl)-4-oxo-4H-chromene-2-carboxylic acid [4-(4-propionyl-piperazin-1-yl)-phenyl]-amide] | demonstrate activity |

Tested on: not given
Assay: not given
Conditions: not given

| Compound | melting point |
| --- | --- |
| CN1CCN(c2cccc3c2OC(C(=O)Nc2ccc(N4CCOCC4)cc2)CC3)CC1 (racemic) [Example 75, racemic-8-(4-Methyl-piperazin-1-yl)-chroman-2-carboxylic acid (4-morpholin-4-yl-phenyl)-amide] | 215 to 216 °C |
| CN1CCN(c2cccc3c2OC(C(=O)Nc2ccc(N4CCOCC4)cc2)CC3=O)CC1 (single isomer, unassigned) [Example 79, 8-(4-Methyl-piperazin-1-yl)-4-oxo-chroman-2-carboxylic acid (4-morpholin-4-yl-phenyl)-amide] | 216 °C (dec.) |
| CN1CCN(c2cccc3c2OC(C(=O)Nc2ccc(N4CCOCC4)cc2)CC3=O)CC1 (single isomer, unassigned) [Example 80, 8-(4-Methyl-piperazin-1-yl)-4-oxo-chroman-2-carboxylic acid (4-morpholin-4-yl-phenyl)-amide] | 215 °C (dec.) |
| CN1CCN(c2cccc3c(=O)cc(C(=O)Nc4ccc(N5CCOCC5)cc4O)oc23)CC1 [Example 22, 8-(4-Methyl-piperazin-1-yl)-4-oxo-4H-chromene-2-carboxylic acid (2-hydroxy-4-morpholin-4-yl-phenyl)-amide] | 248.4 to 249.6 °C |
| COc1cc(N2CCN(C)CC2)c2oc(C(=O)Nc3ccc(N4CCN(C(=O)CCO)CC4)cc3)cc(=O)c2c1 [Example 68, 6-Methoxy-8-(4-methyl-piperazin-1-yl)-4-oxo-4H-chromene-2-carboxylic acid {4-[4-(3-hydroxy-propanoyl)-piperazin-1-yl]-phenyl}-amide] | 195 to 197 °C |
| CCNC(=O)N1CCN(c2ccc(NC(=O)c3cc(=O)c4cc(F)cc(N5CCN(C)CC5)c4o3)cc2)CC1 [Example 81, 4-[4-({1-[6-Fluoro-8-(4-methyl-piperazin-1-yl)-4-oxo-4H-chromen-2-yl]-methanoyl}-amino)-phenyl]-piperazine-1-carboxylic acid Ethylamide] | 236 to 238 °C |

Results, then the compound that gave them:

| melting point | Compound |
| --- | --- |
| 215 to 216 °C | CN1CCN(c2cccc3c2OC(C(=O)Nc2ccc(N4CCOCC4)cc2)CC3=O)CC1 (racemic) [Example 78, racemic-8-(4-methyl-piperazin-1-yl)-4-oxo-chroman-2-carboxylic acid (4-morpholin-4-yl-phenyl)-amide] |
| 206 to 207 °C | CN1CCN(c2cccc3c2OC(C(=O)Nc2ccc(N4CCOCC4)cc2)CC3)CC1 (single isomer, unassigned; (+)) [Example 76, (+)-8-(4Methyl-piperazin-1-yl)-chroman-2-carboxylic acid (4-morpholin-4-yl-phenyl)-amide] |
| 205.5 to 207 °C | CN1CCN(c2cccc3c2OC(C(=O)Nc2ccc(N4CCOCC4)cc2)CC3)CC1 (single isomer, unassigned; (-)) [Example 77, (−)-8-(4-Methyl-piperazin-1-yl)-chroman-2-carboxylic acid (4-morpholin-4-yl-phenyl)-amide] |
| 217 to 218 °C (dec.) | CN1CCN(c2cccc3c(=O)cc(C(=O)Nc4ccc(N5CCOCC5)cc4)oc23)CC1 [Example 1, 8-(4-methyl-1-piperazinyl)-N-[4-(4-morpholinyl)phenyl]-4-Oxo-4H-chromene-2-carboxamide] |
| 245 to 246.8 °C | CN1CCN(c2cccc3c(=O)cc(C(=O)N(C)c4ccc(N5CCOCC5)cc4)oc23)CC1 [Example 25, 8-(4-Methylpiperazin-1-yl)-4-oxo-4H-chromene-2-carboxylic acid methyl-(4-morpholin-4-yl-phenyl)amide] |
| 234 to 236 °C | COc1cc(N2CCN(C)CC2)c2oc(C(=O)Nc3ccc(N4CCOCC4)cc3)cc(=O)c2c1 [Example 31, 6-Methoxy-8-(4-methyl-piperazin-1-yl)-4-oxo-4H-chromene-2-carboxylic acid (4-morpholin-4-yl-phenyl)-amide] |
| 233 to 234 °C | CCS(=O)(=O)N1CCN(c2ccc(NC(=O)c3cc(=O)c4cc(F)cc(N5CCN(C)CC5)c4o3)cc2)CC1 [Example 71, 6-Fluoro-8-(4-methyl-piperazin-1-yl)-4-oxo-4H-chromene-2-carboxylic acid [4-(4-ethane sulfonyl-piperazin-1-yl)-phenyl]-amide] |
| 195 to 199 °C | CN1CCN(c2cc(F)cc3c(=O)cc(C(=O)Nc4ccc(N5CCN(C(=O)CCO)CC5)cc4)oc23)CC1 [Example 73, 6-Fluoro-8-(4-methyl-piperazin-1-yl)-4-oxo-4H-chromene-2-carboxylic acid {4-[4-(3-hydroxy-propanoyl)-piperazin-1-yl]-phenyl}-amide] |
